Assay results: US9682999B2, “Benzofuran compounds for the treatment of hepatitis C virus infections” (Glaxo Group Limited, priority 2011, dated 2017)
pEC50: −log10 of the molar value.

How the values were obtained:
[1] = In vivo pharmacokinetic study, rat
Description: In vivo pharmacokinetic studies were conducted in mouse, rat, dog, or cynomolgus monkey to determine clearance, oral exposure and bioavailability (% F). Solution doses of the compounds were administered intravenously through catheters or orally by gavage. Blood samples were collected at the following time points (n=2 or 3/route/species): 0.083 (IV only), 0.167 (IV only), 0.25, 0.5, 1, 2, 4, 6, 8, 12, and 24 h. Non-compartmental pharmacokinetic parameters were determined using Phoenix Winnonlin 6.1 (Pharsight, Mountain View, Calif.). Bioavailability of the oral formulation of each compound were calculated as the ratio of the oral dose normalized AUCinf to the intravenous dose normalized AUCinf. Results are expressed in Table 2.

[2] = Hepatocyte incubations, metabolic stability; type: in vitro ADME; design: dose or concentration left out as unconfirmed; settings: cryopreserved human hepatocytes, 0.25×10^6 cells, up to 120 min, 37 C
Description: Hepatocyte incubations were conducted using cryopreserved hepatocytes purchased from CellzDirect (Durham, N.C.). Cryopreserved hepatocytes were removed from liquid nitrogen and thawed according to XenoTech's guidelines listed in “XenoTech Protocol for Thawing Cryopreserved Hepatocytes” using Hepatocyte Isolation Kit K2000 (Dec. 13, 2004). Hepatocytes were diluted to 1 million cells in 1 mL of Williams E media containing 25 mM HEPES buffer and 2 mM Glutamax.
Hepatocyte incubations were carried out in 96-well plates on an Eppendorf shaker at 350 rpm at 37 C. Reaction mixtures consisted of 0.25×10^6 cells and […] test compound (to maintain a 0.05% final DMSO concentration) in a final volume of 0.5 mL. An initial time-point (t0) was collected and subsequent aliquots were collected at 15, 30, 60, 90, and 120 min. Reactions were terminated by transferring […] of the incubation mixture into a 96-well plate containing […] of an organic mixture [acetonitrile and methanol (80:20)] at 4° C. Precipitated protein was removed by centrifugation and the resultant supernatant was transferred to a new 96-well polypropylene plate for LC/MS/MS analysis. Drug-free matrix control and 2 QC standards (phenacetin and propranolol) were included in each experiment and treated in the same manner as test compound.
Metabolic stability expressed as the percentage of parent compound remaining was calculated from the peak area ratio of compound remaining after incubation (tx) compared to the time zero (t0) incubation.
The half-life (t1/2) was calculated using the following equation: […]
Where K is the slope of the ln % remaining vs. time regression. Half-life values were only reported when at least 15% loss of parent compound was observed.

[3] = test system: sub-genomic HCV NS3-NS5B replicon genotype 1a (Huh-7 cells); assay: Replicon luciferase cell based assay, genotype 1a; settings: Hepatitis C virus; Huh-7 genotype 1a luciferase replicon, 48 hours; read-out: EC50 GT 1a
Description: (§1) 150 μL of a 1 mM stock solution in DMSO of each test compound was transferred into in the first column of a 96 well, V-bottom microplate, to give 200 times the top concentration of the required dilution series. Aliquots of 50 μL were added to each well of the remaining rows containing 100 μL of DMSO giving a 1:3 dilution series over ten points. Columns 11 and 12 contained DMSO only for the positive and negative control, respectively. 10 μL of each well were transferred into 90 μL of DMEM medium (Invitrogen #41965-039) supplemented with 5% v/v foetal calf serum, 1% v/v non-essential amino acids solution, 100 units/ml penicillin, 100 μg/ml streptomycin and 2 mM L-glutamine to give 20 times the top concentration of the required dilution series.
(§2) Suspensions were prepared from cultures of Huh-7 cells stably transfected with sub-genomic HCV NS3-NS5B replicons of either genotype 1b (the ET subline described by Pietschmann, T., Lohmann, V., Kaul, A., Krieger, N., Rinck, G., Rutter, G., Strand, D. & Bartenschlager, R., Journal of Virology, 2002, 76, 4008-4021), genotype 1a (subline 1.19 constructed in-house from H77 SG-Neo containing adaptive mutations P1496L and S2204I as described by Blight, K. J., McKeating, J. A., Marcotrigiano, J., and Rice, C. M. Journal of Virology, 2003, 77, 3180-3190), genotype 1b C316N (constructed in-house by site directed mutagenesis of the NS5B gene of the ET subline), or genotype 1a C316Y (constructed in-house by site directed mutagenesis of the NS5B gene of H77 SG-Neo containing adaptive mutations P1496L and S2204I as described by Blight, K. J., McKeating, J. A., Marcotrigiano, J., and Rice, C. M. Journal of Virology, 2003, 77, 3180-3190) linked to a firefly luciferase reporter gene. Monolayers nearing confluency were stripped from growth flasks with versene-trypsin solution and the cells re-suspended in assay medium comprising DMEM. 95 μL of suspension containing either 15,000 cells (genotype 1b luciferase replicon) or 20,000 cells (genotype 1a luciferase replicon) were added to all wells of a 96 well plate (Perkin Elmer, #6005686), except medium controls in column 12 of the assay plate. The cell suspension was dosed with 5 μL of compound solution and the plate was incubated for 48 hours at 37° C. in a 5% CO2 atmosphere.
(§3) For toxicity the cells in one plate were treated with Cell Titer Glo (Promega, #G7573). A solution of Cell Titer Glo was prepared according to the manufacturer's instructions, and 100 μL added to each well. The plate was then read for luminescence on an Envision. For potency a solution of Steady Glo (Promega, #E2550) was prepared according to the manufacturer's instructions and 100 μL added to each well. After a twenty minute incubation the plate was then read for luminescence on an Envision.
(§4) Potency: The luminescence values from all compound-free wells containing cells were averaged to obtain a positive control value. The mean luminescence value from the compound-free wells that had received no cells was used to provide the negative (background) control value. The readings from the wells at each compound concentration were taken and after the subtraction of the mean background from all values, were expressed as a percentage of the positive control signal. The quantifiable and specific reduction of luciferase signal in the presence of a drug is a direct measure of replicon inhibition. BioAssay Enterprise (CamebridgeSoft) with the XC50 module for curve fitting was used to plot the curve of percentage inhibition against compound concentration and derive the 50% inhibitory concentration (EC50) for the compound. EC50 is the effective concentration, that is, the concentration of compound where 50% maximal effect is observed. The EC50 values of two identical plates were averaged. The results are presented in Table 1 as EC50 for genotypes (GT) 1a, 1b, 1b 316N and 1a 316Y.

[4] = test system: sub-genomic HCV NS3-NS5B replicon genotype 1b (Huh-7 cells); assay: Replicon luciferase cell based assay, genotype 1b; settings: Hepatitis C virus; Huh-7 genotype 1b luciferase replicon, 48 hours; read-out: EC50 GT1b
Description: as §1, §2, §3, §4

[5] = test system: sub-genomic HCV NS3-NS5B replicon genotype 1b C316N (Huh-7 cells); assay: Replicon luciferase cell based assay, genotype 1b C316N; settings: Hepatitis C virus, Huh-7, 48 h, read-out: EC50 1b 316N
Description: as §1, §2, §3, §4

[6] = test system: sub-genomic HCV NS3-NS5B replicon genotype 1a C316Y (Huh-7 cells); assay: Replicon luciferase cell based assay, genotype 1a C316Y; settings: Hepatitis C virus, Huh-7, 48 h, read-out: EC50 1a 316Y
Description: as §1, §2, §3, §4

| DNAUC ([1]; Rat) | T 1/2 ([1]; Rat) | clearance ([1]; rat, blood, intravenous) | Vd ([1]; rat, blood, intravenous, read-out: Vss) | bioavailability ([1]; rat, blood, oral) | half-life [2] | SMILES | pEC50 [3] | pEC50 [4] | pEC50 [5] | pEC50 [6] |
| --- | --- | --- | --- | --- | --- | --- | --- | --- | --- | --- |
| 122 ng·h/mL/mg/kg | 1.1 H | 33.1 mL/min/kg | 2.5 L/kg | 23% | 45 min | CNC(=O)c1c(-c2ccc(F)cc2)oc2cc(N(Cc3ccc(B(O)O)c(Cl)c3)S(C)(=O)=O)c(C3CC3)cc12 [B] | – | – | – | – |
| – | – | – | – | – | – | CNC(=O)c1c(-c2ccc(F)cc2)oc2cc(N(c3ccc(B(O)O)c(C(F)F)c3)S(C)(=O)=O)c(C3CC3)cc12 [Example 9, (4-(N-(5-cyclopropyl-2-(4-fluorophenyl)-3-(methylcarbamoyl)benzofuran-6-yl)methylsulfonamido)-2-(difluoromethyl)phenyl)boronic acid] | 8.00 to 9.00 | 8.00 to 9.00 | 8.00 to 9.00 | 6.70 to 7.96 |
| – | – | – | – | – | – | CNC(=O)c1c(-c2ccc(F)cc2)oc2cc(N(c3ccc(OCB(O)O)c(Cl)c3)S(C)(=O)=O)c(C3CC3)cc12 [Example 19, ((2-Chloro-4-(N-(5-cyclopropyl-2-(4-fluorophenyl)-3-(methylcarbamoyl)benzofuran-6-yl)methylsulfonamido)phenoxy)methyl)boronic acid] | 8.00 to 9.00 | 8.00 to 9.00 | 8.00 to 9.00 | 8.00 to 9.00 |
| – | – | – | – | – | – | CNC(=O)c1c(-c2ccc(Cl)cc2)oc2cc(N(c3ccc(B(O)O)c(Cl)c3)S(C)(=O)=O)c(C3CC3)cc12 [Example 2, (2-Chloro-4-(N-(2-(4-chlorophenyl)-5-cyclopropyl-3-(methylcarbamoyl)benzofuran-6-yl)methylsulfonamido)phenyl)boronic acid] | 8.00 to 9.00 | 8.00 to 9.00 | 8.00 to 9.00 | 8.00 to 9.00 |
| – | – | – | – | – | – | CNC(=O)c1c(-c2ccc(F)cc2)oc2cc(N(c3ccc(B(O)O)c(F)c3)S(C)(=O)=O)c(C3CC3)cc12 [Example 5, 4-(N-(5-cyclopropyl-2-(4-fluorophenyl)-3-(methylcarbamoyl)benzofuran-6-yl)methylsulfonamido)-2-fluorophenylboronic acid] | 8.00 to 9.00 | 8.00 to 9.00 | 8.00 to 9.00 | 6.70 to 7.96 |
| – | – | – | – | – | – | CNC(=O)c1c(-c2ccc(F)cc2)oc2cc(N(c3ccc(C4CCB(O)O4)c(Cl)c3)S(C)(=O)=O)c(C3CC3)cc12 (centres unmarked) [Example 27, 6-(N-(3-Chloro-4-(2-hydroxy-1,2-oxaborolan-5-yl)phenyl)methylsulfonamido)-5-cyclopropyl-2-(4-fluorophenyl)-N-methylbenzofuran-3-carboxamide] | 8.00 to 9.00 | 8.00 to 9.00 | 6.70 to 7.96 | 6.70 to 7.96 |
| – | – | – | – | – | – | CNC(=O)c1c(-c2ccc(F)cc2)oc2cc(N(c3ccc(CCB(O)O)c(Cl)c3)S(C)(=O)=O)c(C3CC3)cc12 [Example 23, (2-Chloro-4-(N-(5-cyclopropyl-2-(4-fluorophenyl)-3-(methylcarbamoyl)benzofuran-6-yl)methylsulfonamido)phenethyl)boronic acid] | 8.00 to 9.00 | 8.00 to 9.00 | 6.70 to 7.96 | 6.70 to 7.96 |
| – | – | – | – | – | – | CNC(=O)c1c(-c2ccc(F)cc2)oc2cc(N(c3ccc(B(O)O)c(C#N)c3)S(C)(=O)=O)c(C3CC3)cc12 [Example 12, (2-cyano-4-(N-(5-cyclopropyl-2-(4-fluorophenyl)-3-(methylcarbamoyl)benzofuran-6-yl)methylsulfonamido)phenyl)boronic acid] | 8.00 to 9.00 | 8.00 to 9.00 | 8.00 to 9.00 | 6.70 to 7.96 |
| – | – | – | – | – | – | CNC(=O)c1c(-c2ccc(F)cc2)oc2cc(N(c3ccc(C4CCB(O)O4)c(Cl)c3)S(C)(=O)=O)c(C3CC3)cc12 (single isomer, unassigned; enantiomer 1) [Example 28, 6-(N-(3-Chloro-4-(2-hydroxy-1,2-oxaborolan-5-yl)phenyl)methylsulfonamido)-5-cyclopropyl-2-(4-fluorophenyl)-N-methylbenzofuran-3-carboxamide, enantiomer 1] | 8.00 to 9.00 | 8.00 to 9.00 | 6.70 to 7.96 | 6.70 to 7.96 |
| – | – | – | – | – | – | CNC(=O)c1c(-c2ccc(F)cc2)oc2cc(N(c3cc(F)c4c(c3)COB4O)S(C)(=O)=O)c(C3CC3)cc12 [Example 24, 5-Cyclopropyl-6-(N-(7-fluoro-1-hydroxy-1,3-dihydrobenzo[c][1,2]oxaborol-5-yl)methylsulfonamido)-2-(4-fluorophenyl)-N-methylbenzofuran-3-carboxamide] | 8.00 to 9.00 | 8.00 to 9.00 | 8.00 to 9.00 | 6.70 to 7.96 |
| – | – | – | – | – | – | CNC(=O)c1c(-c2ccc(F)cc2)oc2cc(N(c3ccc(C4COB(O)C4)c(Cl)c3)S(C)(=O)=O)c(C3CC3)cc12 (centres unmarked) [Example 25, 6-(N-(3-Chloro-4-(2-hydroxy-1,2-oxaborolan-4-yl)phenyl)methylsulfonamido)-5-cyclopropyl-2-(4-fluorophenyl)-N-methylbenzofuran-3-carboxamide] | 8.00 to 9.00 | 8.00 to 9.00 | 6.70 to 7.96 | 6.70 to 7.96 |
| – | – | – | – | – | – | CNC(=O)c1c(-c2ccc(F)cc2)oc2cc(N(c3ccc(B(O)O)cc3F)S(C)(=O)=O)c(C3CC3)cc12 [Example 6, 4-(N-(5-cyclopropyl-2-(4-fluorophenyl)-3-(methylcarbamoyl)benzofuran-6-yl)methylsulfonamido)-3-fluorophenylboronic acid] | 8.00 to 9.00 | 8.00 to 9.00 | 6.70 to 7.96 | < 6.00 |
